What all share (assay type): biochemical
For one assay, the target named is T1, human JAK1 (Homo sapiens, UniProt P23458).
T1 construct: catalytic domain, amino acids 866-1154; catalog number PV4774; purchased Invitrogen PV4774
As to the kind of experiment: JAK1 inhibition assay (polyGT substrate / Ulight-JAK1 peptide). As to conditions: recombinant human JAK1 catalytic domain; polyGT or Ulight-JAK1 peptide assay. An outline of the steps:
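Two formats. PolyGT radiometric: 45 min at 30 °C, stopped with phosphoric acid, counted as cpm. Ulight-JAK1 peptide: 60 min at room temperature, stopped with Eu-anti-phosphotyrosine/EDTA, read as RFU. Percent inhibition normalised to vehicle and 10 μM staurosporine.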

The next assay concerns the target T2, human JAK2 (Homo sapiens, UniProt O60674).
T2 construct: catalytic domain (amino acids 808-1132; catalog number PV4210); GST; purchased Invitrogen PV4210
The assay is described as follows: JAK2 inhibition assay (polyGT substrate / Ulight-JAK1 peptide). Conditions: recombinant human JAK2 catalytic domain; polyGT or Ulight-JAK1 peptide assay. An outline of the steps: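 Radiometric: 0.025 mU JAK2 with 2.5 μg polyGT, 1 μM ATP plus ^33P-ATP in MOPS pH 7.5 buffer, 1% DMSO, 90 min at 30° C.; filter counting. Alternative TR-FRET format with Ulight-JAK1 peptide, 60 min at room temperature, Eu-anti-phosphotyrosine detection.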

In the next assay the target is T3, human TYK2 (Homo sapiens, UniProt P29597).
T3 construct: catalytic domain (amino acids 871-1187; catalog number 08-147); purchased Carna Biosciences 08-147
T3 sequence (P29597 871-1187): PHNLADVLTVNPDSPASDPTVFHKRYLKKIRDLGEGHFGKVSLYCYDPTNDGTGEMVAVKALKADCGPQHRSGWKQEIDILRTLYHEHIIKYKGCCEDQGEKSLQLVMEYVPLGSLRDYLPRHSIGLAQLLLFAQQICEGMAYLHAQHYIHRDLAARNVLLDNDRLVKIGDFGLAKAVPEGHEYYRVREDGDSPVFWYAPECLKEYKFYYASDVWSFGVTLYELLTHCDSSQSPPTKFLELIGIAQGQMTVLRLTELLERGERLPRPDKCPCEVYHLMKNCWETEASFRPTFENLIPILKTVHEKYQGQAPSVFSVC
The assay is described as follows: TYK2 inhibition assay. Conditions: recombinant human TYK2 catalytic domain, polyGT substrate. An outline of the steps:
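Radiometric kinase reaction run 90 min at 30 °C, stopped with phosphoric acid, washed and scintillation-counted.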

T2 sequence (O60674 808-1132): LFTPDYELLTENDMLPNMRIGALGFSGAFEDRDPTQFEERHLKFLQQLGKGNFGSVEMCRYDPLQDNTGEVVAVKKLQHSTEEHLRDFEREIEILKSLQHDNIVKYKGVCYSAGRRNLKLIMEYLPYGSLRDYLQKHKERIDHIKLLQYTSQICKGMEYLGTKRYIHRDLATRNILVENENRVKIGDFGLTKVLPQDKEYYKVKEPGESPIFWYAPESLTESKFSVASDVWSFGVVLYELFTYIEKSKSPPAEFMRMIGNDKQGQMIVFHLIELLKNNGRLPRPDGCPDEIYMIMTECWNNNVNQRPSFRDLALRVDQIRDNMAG
T1 sequence (P23458 866-1154): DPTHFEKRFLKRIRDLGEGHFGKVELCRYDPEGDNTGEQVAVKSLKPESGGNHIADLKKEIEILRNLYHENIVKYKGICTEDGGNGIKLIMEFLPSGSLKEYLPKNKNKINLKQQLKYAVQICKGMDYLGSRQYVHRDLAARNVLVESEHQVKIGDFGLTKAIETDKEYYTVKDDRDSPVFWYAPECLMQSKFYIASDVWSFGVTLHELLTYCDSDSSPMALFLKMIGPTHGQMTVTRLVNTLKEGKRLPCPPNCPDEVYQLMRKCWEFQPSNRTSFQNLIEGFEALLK

In the case of `CCc1cc(C2CN(C(C)=O)C2)ncc1N(C)c1cc2c(cn1)ncn2C` [Compound 332, 1-(3-{4-Ethyl-5-[methyl-(1-methyl-1H-imidazo[4,5-c]pyridin-6-yl)-amino]-pyridin-2-yl}-azetidin-1-yl)-ethanone], the IC50 on human JAK1 is 101 to 500 nM; on human JAK2, 501 to 1000 nM; on human TYK2 it was more than 1000 nM.

Take `CCc1cc(C2CN(C(=O)C(F)F)C2)ncc1N(C)c1cc2c(cn1)ncn2C` [Compound 333, 1-(3-{4-Ethyl-5-[methyl-(1-methyl-1H-imidazo[4,5-c]pyridin-6-yl)-amino]-pyridin-2-yl}-azetidin-1-yl)-2,2-difluoro-ethanone]: the IC50 lay in the range of 0.01 to 100 nM at human JAK1, 101 to 500 nM on human JAK2 and 501 to 1000 nM at human TYK2.

Consider `CCc1cc(C2CN(C(=O)C(F)(F)F)C2)ncc1N(C)c1cc2c(cn1)ncn2C` [Compound 334, 1-(3-{4-Ethyl-5-[methyl-(1-methyl-1H-imidazo[4,5-c]pyridin-6-yl)-amino]-pyridin-2-yl}-azetidin-1-yl)-2,2,2-trifluoro-ethanone], for which the IC50 at human JAK1 was in the range of 0.01 to 100 nM; on human JAK2 it was 0.01 to 100 nM; at human TYK2, 501 to 1000 nM.

Take `CCc1cc(CNS(=O)(=O)C(F)F)ncc1N(C)c1cc2c(cn1)ncn2C` [Compound 343, N-{4-Ethyl-5-[methyl-(1-methyl-1H-imidazo[4,5-c]pyridin-6-yl)-amino]-pyridin-2-ylmethyl}-C,C-difluoro-methane sulfonamide]: the IC50 was in the range of 0.01 to 100 nM on human JAK1, 101 to 500 nM at human JAK2 and 501 to 1000 nM on human TYK2.

Consider `CCc1ccccc1N(CC(F)F)c1cc2c(cn1)ncn2C` [Compound 463, N-(2,2-difluoroethyl)-N-(2-ethylphenyl)-1-methyl-1H-imidazo[4,5-c]pyridin-6-amine], for which the results for the IC50 on human JAK1, at human JAK2 and at human TYK2 were 0.01 to 100 nM, 101 to 500 nM and 0.01 to 100 nM, respectively.

What is called IC50 is the point on the concentration scale where inhibition reaches its midpoint.

For the origin of these results see US20130217664A1, “NOVEL COMPOUNDS USEFUL FOR THE TREATMENT OF DEGENERATIVE AND INFLAMMATORY DISEASES” (priority 2012, published 2013).
